In patent US7323541B2, “Polypeptide DNA thereof and use of the same” (Takeda Pharmaceutical Company Limited, priority 2001, dated 2008):
Where no end group is shown, it is not given here.

Key:
[1] = molecular target: T1, TGR23-2 expressing CHO cells (Homo sapiens, UniProt Q6W5P4, N107I/Q344R); experiment: Enhancing activity of intracellular cAMP production; type: cell-based
T1 construct: the clones having the cDNA of TGR23-2, which is contained in pTB2174, were selected; expressed in transfected cells; host or cells: hamster CHO/dhfr- cells, vector pAKKO-111H (pAKKO-TGR23-2)
T1 sequence (Q6W5P4 1-371 N107I/Q344R): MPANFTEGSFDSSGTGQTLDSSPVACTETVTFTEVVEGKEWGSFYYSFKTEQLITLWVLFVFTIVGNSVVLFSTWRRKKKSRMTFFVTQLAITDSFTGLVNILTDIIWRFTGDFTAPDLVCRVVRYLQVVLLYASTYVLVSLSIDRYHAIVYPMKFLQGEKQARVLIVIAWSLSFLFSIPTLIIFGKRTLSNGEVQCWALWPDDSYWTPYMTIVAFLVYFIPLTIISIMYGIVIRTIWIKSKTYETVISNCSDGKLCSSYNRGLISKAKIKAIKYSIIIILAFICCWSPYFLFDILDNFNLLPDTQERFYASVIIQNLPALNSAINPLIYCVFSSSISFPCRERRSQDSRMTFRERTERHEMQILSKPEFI
Experimental: The CHO/TGR23-2 cells prepared in Example 1 and selected in Example 2 were plated on 24-well plate at 7×10^4 cells/well and cultured for 48 hours. The cells were washed with αMEM medium (pH7.5) containing 0.2 mM 3-isobutyl-methylxanthine, 0.05% BSA and 20 mM HEPES (hereafter, αMEM medium (pH7.5) containing 0.2 mM 3-isobutyl-methylxanthine, 0.05% BSA and 20 mM HEPES may be referred to as a reaction buffer). Subsequently, 0.5 ml of the reaction buffer was added, and the solution was incubated for 30 minutes in the incubator. The reaction buffer was removed and 0.25 ml of the reaction buffer was freshly added to the cells. Then, the cells were admixed with a sample and 0.25 ml of the reaction buffer containing 2 μM forskoline, and incubated at 37° C. for 30 minutes. Intracellular cAMP was extracted by removing the reaction solution and adding 0.5 ml of the solution for cell lysis attached with cAMP EIA Kit (Applied Biosystems). The cAMP level in the extract was quantified with the same kit. Based on this measured value, a calculation was made using the following formula, and the enhancing/inhibiting activity for cAMP production was represented by % of control. The activity of the sample-adding group was calculated using a control value configured in each plate. % of control=(X−C)/(T−C)×100
X: The cAMP level in the sample-adding group
T: The means of the cAMP level in 3 wells of positive control (no sample, with stimulus of forskoline)
C: The means of the cAMP level in 3 wells of negative control (no sample, without stimulus of forskoline)
In addition, for the same sample, in accordance with the method shown in Example 4, an arachidonic acid metabolite releasing activity was assayed.
Four microlitters each of the above-mentioned HPLC active fractions of rat whole brain extracts (Fraction numbers 18, 20 and 22 to 23) was added to 100 μl of 0.2 M ammonium acetate and incubated at 37° C. for 2 hours with 3 μg of Pronase. Subsequently, Pronase added, was inactivated by heating in boiling water for 10 minutes. To this solution, one ml of distilled water containing 0.05 mg of BSA and 0.05 mg of CHAPS was added. Further, it was lyophilized. For the lyophilized sample, enhancing activity for intracellular cAMP production was assayed by adding to TGR23-2 expressing CHO cells according to the method shown in Example 3.
Human TGR23-2 ligand (1-20) prepared by the method described in Example 17 was administered to TGR23-1 expressing CHO cells and TGR23-2 expressing CHO cells at a variety of concentrations according to the method described in Example 3, and the enhancing activity of intracellular cAMP production was determined.
Further, human TGR23-2 ligand (1-20) and rat TGR23-2 ligand (1-18) prepared by the method described in Example 19 were administered to TGR23-1 expressing CHO cells and TGR23-2 expressing CHO cells at a variety of concentrations, and the same assay as described above was carried out under the condition of no forskolin. A calculation was made using the following formula, and the enhancing activity for cAMP production was represented by % of control: % of control=X/C×100;
X: The cAMP level in the sample-adding group; and
C: Control (no sample, without stimulus of forskoline).

[2] = molecular target: T2, rat TGR23-1 expressing CHO cells (Rattus norvegicus, UniProt P0C0L6, DEL160-160); experiment: Intracellular Ca ion concentration increasing activity using FLIPR; type: cell-based
T2 construct: The rat TGR23-1 expressing vector was constructed by digestion of plasmid pCR2.1-rTGR23-1 with Sal I and Spe I; expressed in transfected cells; host or cells: CHO dhfr- cells, pAKKO-rTGR23-1, clone No. 34
T2 sequence (P0C0L6 with tags, fused parts or gaps DEL160-160): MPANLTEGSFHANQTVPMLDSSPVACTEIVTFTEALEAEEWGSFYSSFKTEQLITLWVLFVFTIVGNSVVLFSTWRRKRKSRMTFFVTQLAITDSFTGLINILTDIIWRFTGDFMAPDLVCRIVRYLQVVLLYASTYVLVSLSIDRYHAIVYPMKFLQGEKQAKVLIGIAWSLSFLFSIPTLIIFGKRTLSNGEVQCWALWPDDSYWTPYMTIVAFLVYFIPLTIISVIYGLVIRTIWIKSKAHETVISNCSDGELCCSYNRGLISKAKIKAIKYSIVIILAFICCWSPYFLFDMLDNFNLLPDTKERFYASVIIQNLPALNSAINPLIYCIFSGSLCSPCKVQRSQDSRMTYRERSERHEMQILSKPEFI
Experimental: An enhancing activity of intracellular Ca^2+ release was assayed using FLIPR (Molecular Devices, Inc.). The CHO/TGR23-2 cells prepared in Example 1 and selected in Example 2 were plated on 96-well plate at 3×10^4 cells/well and cultured for 24 hours. A loading buffer was prepared by adding 1 vial of Fluo 3-AM to 10 ml of Hanks' solution (pH7.4) containing 2.5 mM Probenecid and 20 mM HEPES (hereafter, Hanks' solution (pH7.4) containing 2.5 mM Probenecid and 20 mM HEPES may be referred to as a washing buffer). The culture medium was discarded from the culture plate and 100 μl/well of the loading buffer were added to the cells. Then, the cells were incubated for 60 minutes in the incubator. After the loading buffer was removed from the culture plate and the cells were washed with the washing buffer, the plate was put in place of FLIPR. A sample was prepared by adding a sample buffer, which 2 mg/ml BSA and 1 mg/ml CHAPS were added to the washing buffer, to lyophilized product, stirring and treating by ultrasonication for 30 minutes, and transferred to 96-well sample plate. This sample plate was also put in place for assay. The enhancing activity of intracellular Ca^2+ release was measured as an increase of fluorescent intensity, which is raised by addition of the sample.
The rat TGR23-2 ligand (1-18) having various concentrations was administered in accordance with the method described in Example 5, to the CHO cells, in which rat TGR23-1 and rat TGR23-5 are expressed. Subsequently, the intracellular Ca ion concentration increasing activity was measured using FLIPR.

EC50 ([2]; rat TGR23-1 expressing cells, calculated from graph FIG. 27) | Sequence | enhancing activity of intracellular cAMP production ([1]; no forskolin) | enhancing activity of intracellular cAMP production ([1]; with forskolin) | intracellular Ca ion concentration increasing activity ([2]; rat TGR23-1 expressing CHO cells)
0.19 nM | SFRNGVGSGVKKTSFRRA [rat TGR23-2 ligand (1-18), Ser-Phe-Arg-Asn-Gly-Val-Gly-Ser-Gly-Val-Lys-Lys-Thr-Ser-Phe-Arg-Arg-Ala] | enhance the intracellular cAMP production | specifically exhibits an enhancing activity for cAMP production | the intracellular Ca ion level increased depending on the concentration of this ligand
– | SFRNGVGTGMKKTSFQRAKS [human TGR23-2 ligand (1-20)] | enhance the intracellular cAMP production | clearly enhances cAMP production | –
